Test results: ChEMBL document CHEMBL5214992, “Potent Uncompetitive Inhibitors of Nicotinamide N-Methyltransferase (NNMT) as In Vivo Chemical Probes” (J Med Chem, 2022)

Columns and labels:
[1] = target: T1, Nicotinamide N-methyltransferase (Homo sapiens, UniProt P40261)
T1 sequence (P40261 whole entry): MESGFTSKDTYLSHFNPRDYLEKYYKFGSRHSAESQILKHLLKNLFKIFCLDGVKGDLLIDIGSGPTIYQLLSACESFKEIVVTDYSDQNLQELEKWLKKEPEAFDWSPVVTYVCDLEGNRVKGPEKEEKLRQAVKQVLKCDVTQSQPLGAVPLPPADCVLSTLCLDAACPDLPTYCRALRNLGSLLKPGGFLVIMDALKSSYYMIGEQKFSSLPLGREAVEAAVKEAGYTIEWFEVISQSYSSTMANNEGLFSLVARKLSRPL
Description: Inhibition of human NNMT measured after 20 mins by luminescence based methyltransferase assay

[2] = target: T1, Nicotinamide N-methyltransferase; assay: Inhibition of human NNMT in human K562 cells measured after 24 hrs by quantitative mass spectrometry; assay type: cell-based
[3] = Microsomal stability in human liver microsomes assessed as compound remaining after 60 mins by LC-MS/MS analysis; assay type: ADME, Microsome; conditions: for remaining at 1 h: liver microsomes, read-out: Stability
[4] = Microsomal stability in mouse liver microsomes assessed as compound remaining after 60 mins by LC-MS/MS analysis; assay type: ADME, Microsome; conditions: for Stability: microsomes, 1 h; for remaining at 1 h: liver microsomes, read-out: Stability
[5] = Tmax in C57BL6/N mouse at 50 mg/kg, po measured upto 24 hrs by LC-MS/MS analysis; assay type: ADME, organism-based; conditions: in vivo
[6] = Cmax in C57BL6/N mouse at 50 mg/kg, po measured upto 24 hrs by LC-MS/MS analysis; assay type: ADME, organism-based; set-up: dose 50 mg/kg, time < 24 hrs, route po; conditions: in vivo
[7] = AUClast in C57BL6/N mouse at 50 mg/kg, po measured upto 24 hrs by LC-MS/MS analysis; assay type: ADME, organism-based; set-up: time < 24 hrs, dose 50 mg/kg, route po; conditions: in vivo; for AUC(0-t) at 24 h: C57BL6/N
[8] = Clearance in C57BL6/N mouse at 1 mg/kg, iv measured upto 24 hrs by LC-MS/MS analysis; assay type: ADME, organism-based; conditions: in vivo
[9] = Oral bioavailability in C57BL6/N mouse at 50 mg/kg measured upto 24 hrs by LC-MS/MS analysis; assay type: ADME, organism-based; conditions: in vivo; for bioavailability: C57BL6/N
[10] = Half life in C57BL6/N mouse at 50 mg/kg, po measured upto 24 hrs by LC-MS/MS analysis; assay type: ADME, organism-based; conditions: in vivo
[11] = Half life in C57BL6/N mouse at 10 mg/kg, po measured upto 24 hrs by LC-MS/MS analysis; assay type: ADME, organism-based; conditions: in vivo
[12] = Dissociation constant, pKa of the compound; assay type: physicochemical
CYP450 = CYP450 (Homo sapiens, UniProt P04798+P05177+P05181+P08684+P10632+P10635+P11509+P11712+P13584+P20813+P20815+P20853+P24462+P24903+P33260+P33261+P51589+P78329+P98187+Q02928+Q08477+Q16678+Q16696+Q5TCH4+Q6VVX0+Q7Z449+Q8TAV3+Q96SQ9+Q9HB55); assay: Inhibition of CYP450 (unknown origin); assay type: ADME, protein assay
[13] = Aqueous solubility of compound at pH 7.4; assay type: physicochemical; conditions: aqueous medium
[14] = Volume of distribution at steady state in C57BL6/N mouse; assay type: ADME; conditions: in vivo, read-out: Vdss
hERG = hERG (Homo sapiens, UniProt Q12809); assay: Inhibition of hERG; assay type: toxicity
[15] = Plasma protein binding in human; assay type: ADME, cell-free; conditions: read-out: PPB
[16] = Plasma protein binding in mouse; assay type: ADME, cell-free; conditions: read-out: PPB
[17] = Toxicity in C57BL6/N mouse assessed as adverse effect at 50 to 100 mg/kg, po qd measured after 2 weeks; assay type: organism-based; conditions: in vivo, 336 h, dose 50-100 mg/kg
P-gp = P-gp (Homo sapiens, UniProt P08183); assay: Substrate activity at P-gp (unknown origin) assessed as efflux ratio; conditions: not told
[18] = Mutagenicity in Salmonella typhimurium by Ames test; assay type: toxicity; conditions: salmonella enterica subsp. enterica serovar typhimurium
[19] = substrate: C[C@@H]1Cc2cc(C(N)=O)cnc2N1; conditions: Homo sapiens
Description: Uncompetitive inhibition of human NNMT assessed as Km of nicotinamide

[20] = substrate: C[C@@H]1Cc2cc(C(N)=O)cnc2N1; conditions: Homo sapiens; remark: listed apart in the source
Description: Uncompetitive inhibition of human NNMT assessed as Km of SAM

Sequence of hERG (Q12809 whole entry): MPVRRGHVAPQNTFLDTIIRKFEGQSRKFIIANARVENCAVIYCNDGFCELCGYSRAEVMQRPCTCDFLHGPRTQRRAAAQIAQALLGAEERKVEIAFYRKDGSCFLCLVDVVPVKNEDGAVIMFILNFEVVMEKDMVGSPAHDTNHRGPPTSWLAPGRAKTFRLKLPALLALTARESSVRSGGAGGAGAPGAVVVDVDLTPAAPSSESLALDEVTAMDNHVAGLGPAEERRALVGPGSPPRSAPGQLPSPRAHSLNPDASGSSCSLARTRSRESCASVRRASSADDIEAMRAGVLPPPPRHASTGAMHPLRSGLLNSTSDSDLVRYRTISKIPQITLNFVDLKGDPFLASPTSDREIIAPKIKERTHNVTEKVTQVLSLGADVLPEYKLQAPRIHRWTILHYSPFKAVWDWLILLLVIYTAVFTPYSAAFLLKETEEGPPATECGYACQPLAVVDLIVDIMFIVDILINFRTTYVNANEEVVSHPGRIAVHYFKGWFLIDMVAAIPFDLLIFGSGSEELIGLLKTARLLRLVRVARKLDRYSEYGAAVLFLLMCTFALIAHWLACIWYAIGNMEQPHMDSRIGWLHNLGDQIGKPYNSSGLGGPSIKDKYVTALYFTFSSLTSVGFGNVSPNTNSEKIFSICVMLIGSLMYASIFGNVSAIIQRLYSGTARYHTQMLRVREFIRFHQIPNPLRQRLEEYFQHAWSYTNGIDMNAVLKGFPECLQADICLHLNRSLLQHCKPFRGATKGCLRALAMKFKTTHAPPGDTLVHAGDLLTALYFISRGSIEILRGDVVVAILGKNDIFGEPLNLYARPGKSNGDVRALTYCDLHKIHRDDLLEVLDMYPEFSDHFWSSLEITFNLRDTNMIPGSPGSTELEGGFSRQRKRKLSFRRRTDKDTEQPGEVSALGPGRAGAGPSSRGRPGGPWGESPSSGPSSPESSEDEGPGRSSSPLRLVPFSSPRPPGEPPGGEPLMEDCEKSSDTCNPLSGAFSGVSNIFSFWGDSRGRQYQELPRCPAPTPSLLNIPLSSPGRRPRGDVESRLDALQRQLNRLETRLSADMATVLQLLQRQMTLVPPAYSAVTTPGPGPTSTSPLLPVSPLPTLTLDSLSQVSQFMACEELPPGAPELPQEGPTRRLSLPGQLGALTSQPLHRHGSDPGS
Sequence of P-gp (P08183 whole entry): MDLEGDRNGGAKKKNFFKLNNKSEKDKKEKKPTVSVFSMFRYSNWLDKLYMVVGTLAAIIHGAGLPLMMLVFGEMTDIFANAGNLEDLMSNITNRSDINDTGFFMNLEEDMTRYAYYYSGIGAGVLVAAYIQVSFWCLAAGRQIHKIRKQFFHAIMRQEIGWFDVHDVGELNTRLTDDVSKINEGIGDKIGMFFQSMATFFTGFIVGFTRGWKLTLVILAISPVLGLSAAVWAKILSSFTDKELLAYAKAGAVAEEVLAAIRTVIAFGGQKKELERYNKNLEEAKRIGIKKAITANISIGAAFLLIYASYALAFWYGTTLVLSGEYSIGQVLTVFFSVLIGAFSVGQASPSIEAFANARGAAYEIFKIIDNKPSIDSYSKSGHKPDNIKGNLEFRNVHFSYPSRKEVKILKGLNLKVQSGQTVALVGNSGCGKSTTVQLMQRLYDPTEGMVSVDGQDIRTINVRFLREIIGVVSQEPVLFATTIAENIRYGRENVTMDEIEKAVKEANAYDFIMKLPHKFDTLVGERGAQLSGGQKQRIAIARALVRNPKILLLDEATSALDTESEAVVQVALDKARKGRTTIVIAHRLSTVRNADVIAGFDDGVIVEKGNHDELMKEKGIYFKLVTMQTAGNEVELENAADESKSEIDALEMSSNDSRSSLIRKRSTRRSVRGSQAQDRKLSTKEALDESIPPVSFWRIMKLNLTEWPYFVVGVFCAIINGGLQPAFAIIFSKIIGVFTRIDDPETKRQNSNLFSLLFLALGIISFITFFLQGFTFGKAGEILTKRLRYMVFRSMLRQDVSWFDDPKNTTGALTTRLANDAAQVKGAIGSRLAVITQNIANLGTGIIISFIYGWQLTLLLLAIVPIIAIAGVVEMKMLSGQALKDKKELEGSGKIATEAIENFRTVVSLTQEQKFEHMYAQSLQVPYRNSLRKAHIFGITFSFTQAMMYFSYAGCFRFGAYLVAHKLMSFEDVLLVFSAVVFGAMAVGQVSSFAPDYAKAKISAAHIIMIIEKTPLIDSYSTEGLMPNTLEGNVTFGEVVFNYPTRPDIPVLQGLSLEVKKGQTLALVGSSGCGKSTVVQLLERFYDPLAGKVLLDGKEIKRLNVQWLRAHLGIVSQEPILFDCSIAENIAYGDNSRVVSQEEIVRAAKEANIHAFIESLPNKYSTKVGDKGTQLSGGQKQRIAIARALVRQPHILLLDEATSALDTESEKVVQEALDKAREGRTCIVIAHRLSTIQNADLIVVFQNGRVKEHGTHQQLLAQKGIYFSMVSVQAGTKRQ

## CNc1ccncc1C(N)=O
[1]
  IC50: > 10000 nM

## CNc1cc(C)c(C(N)=S)cn1
[1]
  IC50: > 10000 nM

## CNc1ncc(C(N)=O)c(C)c1C
[1]
  IC50: > 10000 nM

## CNc1cc(Cl)c(C(N)=O)cn1
[1]
  IC50: 639 nM

## C[C@H]1Nc2ncc(C(N)=O)cc2[C@@H]1C
[2]
  IC50: 114 nM
[3]; microsomes, 1 h
  Stability: Unstable
[4]
  Stability: Unstable

## Cc1c(C(N)=O)cnc2c1C[C@@H](C)N2
[2]
  IC50: 12 nM
[3]
  remaining at 1 h: 91%
[4]
  Stability: Unstable
[5]
  Tmax: 20 min
[6]
  Cmax: 11200 ng/mL
[7]
  AUC(0-t) at 24 h: 12100 ng·h/mL
[8]
  clearance: 90 mL/min/kg
[9]
  bioavailability: 129%
[1]
  IC50: 43 nM

## NC(=O)c1cnc2c(c1)CCN2
[2]
  IC50: 142 nM
[3]
  remaining at 1 h: 100%
[4]
  remaining at 1 h: 89%
[10]
  half-life: 87.6 min
[11]
  half-life: 23.4 min
[5]
  Tmax: 15 min
[6]
  Cmax: 28700 ng/mL
[7]
  AUC(0-t) at 24 h: 29000 ng·h/mL
[8]
  clearance: 64.2 mL/min/kg
[1]
  IC50: 175 nM

## NC(=O)c1cnc2c(c1)CCCN2
[1]
  IC50: 740 nM

## COc1ccc(C(N)=O)cn1
[1]
  IC50: 1390 nM

## CNc1ncc(C(N)=O)s1
[1]
  IC50: > 10000 nM

## NC(=O)c1cnc2[nH]ccc2c1Cl
[1]
  IC50: > 10000 nM

## Cc1c(C(N)=O)c[n+]([O-])c2c1CCN2
[1]
  IC50: 7050 nM

## CNc1cc(OC)c(C(N)=O)cn1
[1]
  IC50: > 10000 nM

## CCOc1cc(C)c(C(N)=O)cn1
[1]
  IC50: > 10000 nM

## Cc1c(C(N)=O)cnc2c1CCN2
[2]
  IC50: 23 nM
[3]
  remaining at 1 h: 85%
[4]
  remaining at 1 h: 47%
[10]
  half-life: 32.6 min
[11]
  half-life: 22.2 min
[5]
  Tmax: 15 min
[6]
  Cmax: 13500 ng/mL
[7]
  AUC(0-t) at 24 h: 9220 ng·h/mL
[8]
  clearance: 182 mL/min/kg
[9]; po, 50 mg/kg, 24 h
  F: 191%
[1]
  IC50: 102 nM

## C[C@@H]1Nc2ncc(C(N)=O)cc2[C@H]1C
[1]
  IC50: > 10000 nM

## CNc1ncc(C(N)=O)cn1
[1]
  IC50: > 10000 nM

## NC(=O)c1ccc(N)nc1 [6-AMINONICOTINAMIDE]
[1]
  IC50: 3620 nM

## C[C@@H]1Cc2cc(C(N)=O)c[n+](C)c2N1
[1]
  IC50: 6240 nM

## C[C@@H]1Cc2c(ncc(C(N)=O)c2Cl)N1
[1]
  IC50: 48 nM

## COc1ccccn1
[12]
  pKa: 3.28

## CNc1ncc(C(N)=O)c(C)n1
[1]
  IC50: > 10000 nM

## NC(=O)c1cnc2c(c1Cl)CCN2
[2]
  IC50: 79 nM
[3]
  remaining at 1 h: 57%
[4]
  remaining at 1 h: 40%
[10]
  half-life: 172 min
[11]
  half-life: 27 min
[5]
  Tmax: 15 min
[6]
  Cmax: 5580 ng/mL
[7]
  AUC(0-t) at 24 h: 4330 ng·h/mL
[8]
  clearance: 179 mL/min/kg
[9]
  bioavailability: 90%
[1]
  IC50: 92 nM

## NC(=O)c1cnc2[nH]ncc2c1
[1]
  IC50: > 10000 nM

## C[C@@H]1Cc2cc(C(N)=O)cnc2N1
[2]
  IC50: 38 nM
[3]
  remaining at 1 h: 97%
[4]
  remaining at 1 h: 93%
[10]
  half-life: 173 min
[11]
  half-life: 78.5 min
[5]
  Tmax: 15 min
[6]
  Cmax: 22500 ng/mL
[7]; 24 h
  AUClast: 5115 ng·h/mL
CYP450
  IC50: > 100000 nM
[13]
  solubility: ≥ 50 µg/mL
[14]
  Vd: 0.877 L/kg
hERG
  IC50: > 30000 nM
[15]
  fraction unbound: > 0.62
[16]
  fraction unbound: > 0.76
[17]
  Activity: Non-Toxic
P-gp
  efflux ratio: 0.79
[18]
  Activity: Non-Toxic
[1]
  IC50: 42 nM

## NC(=O)c1cnc2c(c1)OCCN2
[1]
  IC50: > 10000 nM

## CNc1cc(C(F)(F)F)c(C(N)=O)cn1
[1]
  IC50: > 10000 nM

## CNc1cc(C)c(C(N)=O)cn1
[2]
  IC50: 25 nM
[3]
  remaining at 1 h: 95%
[4]
  remaining at 1 h: 85%
[10]
  half-life: 107 min
[11]
  half-life: 66.6 min
[6]
  Cmax: 38900 ng/mL
[7]
  AUC(0-t) at 24 h: 30700 ng·h/mL
[8]
  clearance: 62.8 mL/min/kg
[1]
  IC50: 282 nM

## C[C@H]1Cc2cc(C(N)=O)cnc2N1
[1]
  IC50: > 10000 nM

B1: Nicotinamide N-methyltransferase (Homo sapiens), P40261 (protein)
chain: MESGFTSKDTYLSHFNPRDYLEKYYKFGSRHSAESQILKHLLKNLFKIFCLDGVKGDLLIDIGSGPTIYQLLSACESFKEIVVTDYSDQNLQELEKWLKKEPEAFDWSPVVTYVCDLEGNRVKGPEKEEKLRQAVKQVLKCDVTQSQPLGAVPLPPADCVLSTLCLDAACPDLPTYCRALRNLGSLLKPGGFLVIMDALKSSYYMIGEQKFSSLPLGREAVEAAVKEAGYTIEWFEVISQSYSSTMANNEGLFSLVARKLSRPL
[19]
  Km: 13.9 µM
[20]
  Km: 20.2 µM
